Results taken from patent US8288548B2, “Oxazolo[5-4-b]pyridin-5-yl compounds” (Eli Lilly and Company, priority 2010, dated 2012).
Values joined by “and” are separate entries in the source; they are usually repeats but may differ in a detail not shown here. Equal entries are not always repeated.

Assays:
[1] = target: human p38α MAP kinase (Homo sapiens, UniProt Q16539); assay: Inhibition of p38α MAP kinase enzyme activity (33P-ATP filter assay); type: biochemical; details: 100 μM ATP, 11.8 nM p38α MAP kinase
human p38α MAP kinase, sequence (Q16539 whole entry): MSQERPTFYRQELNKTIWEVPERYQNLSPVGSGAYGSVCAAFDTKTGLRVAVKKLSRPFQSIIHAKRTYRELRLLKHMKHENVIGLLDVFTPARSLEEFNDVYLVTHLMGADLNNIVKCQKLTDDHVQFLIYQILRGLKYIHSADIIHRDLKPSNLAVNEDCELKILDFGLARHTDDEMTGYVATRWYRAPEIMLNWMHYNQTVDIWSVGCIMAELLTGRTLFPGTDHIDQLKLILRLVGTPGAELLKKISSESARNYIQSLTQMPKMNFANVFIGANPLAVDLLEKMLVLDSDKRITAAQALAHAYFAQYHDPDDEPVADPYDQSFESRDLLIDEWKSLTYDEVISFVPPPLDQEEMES
Protocol: The kinase reaction buffer is prepared as a stock solution containing 1440 μL of 1 M 4-(2-hydroxyethyl)-1-piperazineethanesulfonic acid (HEPES) pH 7.5, 240 μL of 1 M MgCl2, 72 μL of 1 M dithiothreitol (DTT), 25 μL of 10% TRITON® X-100, 43223 μL of H2O. The substrate mix is prepared by combining the following: 2775 μL kinase reaction buffer, 75.0 μL adenosine triphosphate (ATP) at 10 mM, 270 μL EGFR peptide (Upstate Biotechnology/Millipore) at 4 mM (9.17 mg/mL) and 12.5 μL ^33P-ATP. The p38 MAP kinase enzyme stock solution is prepared by diluting 0.1 mg/mL solution of purified human p38α MAP kinase in 3000 μL of reaction buffer. Stock solutions of test compounds are generated by dissolving the compounds in 100% dimethyl sulfoxide (DMSO) at 10 mM. 100 μM stock dilution plates are generated by diluting 2 μL of 10 mM stock in 198 μL of 20% DMSO. 1:3 dilutions in 20% DMSO are generated from the 100 μM stock using a Tecan liquid handler.
For the kinase assay, 5 μL of diluted compound is transferred to the reaction plate, followed by 10 μL of enzyme stock solution (added using a MULTIDROP® liquid dispenser). […] Following the washing steps, 80 μL of MICROSCINT™20 is added and the radioactivity counted in a Trilux MICROBETA®. IC50 values are calculated using Activity Base software (IDBS).

[2] = system: p38 MAP kinase; assay: Inhibition of p38 MAP kinase in the cell-based assay (p-MAPKAPK2 cELISA, TNFα-stimulated HeLa cells); details: Homo sapiens, TNFα stimulation, read-out: Relative IC50
[3] = system: p38 MAP kinase; assay: In vivo target inhibition (IVTI) of p38 MAP kinase in naïve C57BL/6 mice (p-MAPKAPK2 in PBMCs, flow cytometry); details: 2 hours post-dose
Protocol: IVTI of p38 MAP kinase is measured in peripheral blood mononuclear cells (PBMCs) of mice dosed orally with test compound using a flow cytometry assay for p-MAPKAPK2, a p38 MAP kinase substrate.
Male C57BL/6 mice (6-8 weeks old) are randomized into groups of 4. Test compound is administered by oral gavage in a 0.1 mL volume of vehicle (1% hydroxyethyl cellulose (HEC), 0.25% TWEEN® 80, 0.05% antifoam). Control animals are administered 0.1 mL vehicle with no test compound. For single dose and dose response studies, animals are sacrificed 2 hour post-dose. For time-course studies, animals are sacrificed at different time-points post-dose, typically, 1, 2, 4, 6, 18 and 24 hours. Whole blood is collected in EDTA-coated tubes (AQUISEL).
100 μL mouse whole blood is added into each EDTA tube and incubated at 37° C. for 10 minutes. […]
Samples are incubated at RT for 30 minutes. […] Samples are analyzed by flow cytometry (FACScaliber, BD). After defining the viable single cell population by side and forward scatter, the level of p-MAPKAPK2 is measured in the monocyte population defined (gated) by CD11b^hiLy6G^−.
The median fluorescence intensity in the monocyte cells is analyzed to determine the level of p-MAPKAPK2. […] Percent inhibition by test compound is determined by using the following equation: […]

IC50 [1]: 3 nM
IC50 [2]: 1.6 nM
Compound: COCC[C@H](C)Nc1nc2ccc(-c3nc(C(C)(C)CO)[nH]c3-c3ccc(F)cc3F)nc2o1 [Example 1, 2-[5-(2,4-Difluorophenyl)-4-[2-[[(1S)-3-methoxy-1-methyl-propyl]amino]oxazolo[5,4-b]pyridin-5-yl]-1H-imidazol-2-yl]-2-methyl-propan-1-ol]
Threshold Efficacious Dose for 70% inhibition (TED70) ([3]; oral, PBMCs): 5.1 mg/kg
Threshold Efficacious Concentration for 70% inhibition (TEC70) ([3]; plasma): 39.4 ng/mL and 0.084 μM
